# Patent US20050238580A1 (priority 2002, published 2005)
# Experiments:
# Assay type in all cases: in vivo
# intestinal lactase [1] = molecular target: T1, intestinal lactase (Homo sapiens, UniProt P09848); test: Excretion of xylose in urine of adult human volunteers after oral 4-galactosyl-xylose, colorimetric titration with fluoroglucinol
# T1 construct: from tissue; host or cells: small-intestinal mucous membrane of living adult human volunteers (in vivo)
# Method: The methodology consists of the oral administration of an aqueous solution of 4-galactosyl-xylose to humans after at least 8 hours of fasting. The amount of xylose present in the urine excreted is evaluated as of then, after a specific period of time. The methodology can be carried out likewise by evaluating the presence of xylose in blood evaluating it in plasma, or blood serum, prepared from a blood sample extracted after a period of time, after the intake of the disaccharide. The titration of xylose can be done by means of calorimetric analysis based on the reaction with fluoroglucinol and using as a target, either the basal urine or else the basal plasma or the basal blood serum, depending on the methodology that is used. Once the intake of 4-galactosyl-xylose has taken place, it is hydrolyzed by the intestinal lactase, in such a way that the products of this enzymatic reaction, galactose and xylose, are absorbed into the blood through the intestinal mucous membrane.
# 4-galactosyl-xylose is an in vivo substrate of human intestinal lactase. This has been shown in the first place by orally administering 1 g of 4-galactosyl-xylose dissolved in 50 ml of water to an adult volunteer (individual 1) who had fasted for 8 hours and with a normal tolerance to milk and milk products, in other words, with lactose tolerance. A basal urine sample was taken from this individual immediately before the intake of 4-galactosyl-xylose and urine was again collected after the intake thereof every hour for 8 hours, each sample showing the total urine excreted in each period of time. Xylose was titrated in all the samples by means of calorimetric analysis based on the reaction with fluoroglucinol and using basal urine as the target. […] The results of this experiment appear compiled in FIG. 3, where the amount of xylose evaluated in each sample is represented (white circles) and the amount of xylose that is being accumulated in urine over time is represented (black circles), calculated by adding to the amount of xylose evaluated in each sample, the amounts evaluated in all the preceding samples. In […] one can see: 1) That xylose is excreted in the urine of this individual after oral administration of 4-galactosyl-xylose; 2) That the excretion of xylose in urine was maximum after 2 hours and it was progressively accumulated in the urine after administration of this compound.
# Excretion of xylose in urine by adult human volunteers with lactose tolerance varies according to the amount of the 4-galactosyl-xylose intake. This has been shown by administering 0.25 g, 0.5 g and 3 g of 4-galactosyl-xylose to an adult volunteer with lactose tolerance (individual 1, Example 4) and to an adult volunteer with lactose tolerance (individual 2, Example 5) under the same conditions as those described in Example 1 and likewise titrating xylose calorimetrically with fluoroglucinol in the urine excreted by both volunteers over time after the intake of the disaccharide. A free period of around one week was left between each intake of 4-galactosyl-xylose by the same individual. […] The results of these experiments are compiled in FIG. 4 panel A (for individual 1 and Example 4) and in FIG. 4 panel B (for individual 2 and Example 5), wherein the amount of xylose accumulated in urine after the intake of 4-galactosyl-xylose for each administered dose is represented. FIG. 4A includes the data obtained with the same individual after an intake of 1 g of the disaccharide coming from FIG. 3 so that a comparison can be made with the rest of the administered doses. In these FIGS. 4A and 4B one can see: 1) That the excretion of xylose in urine over time after the intake of 4-galactosyl-xylose increased as the amount administered to individual 1 (FIG. 4A), as well as to individual 2 (FIG. 4B) increased; That a dose of 0.25 g 4-galactosyl-xylose permitted easy detection of the presence of xylose in urine in either of these two individuals. […]
# intestinal lactase [2] = molecular target: T1, intestinal lactase; test: Xylose in blood plasma of human volunteers after oral 4-galactosyl-xylose, colorimetric titration with fluoroglucinol
# Method: Oral administration of 3 g of 4-galactosyl-xylose to adult human volunteers with lactose tolerance gave rise to the gradual presence of xylose in blood plasma titrated calorimetrically with fluoroglucinol, that reached a maximum about 2 hours after the intake of the disaccharide. Oral administration of the same amount of 4-galactosyl-xylose to an adult human volunteer with lactose intolerance diagnosed as hypolactasic produced a significant reduction in the amount of xylose evaluated in blood plasma of this individual two hours after the intake of the disaccharide.
# The evaluation of xylose in blood after the oral administration of 4-galactosyl-xylose permits non-invasive diagnosis of intestinal lactase deficiency. This has been shown by administering 3 g of 4-galactosyl-xylose to two volunteers with lactose tolerance [individual 1, Example 17 and individual 2, Example 18 (these individuals were also studied in Examples 3 to 6)] and to the hypolactasic individual 12 with lactose intolerance [Example 19 (this individual was also studied in examples 12 and 15]). Xylose was titrated colorimetrically with fluoroglucinol in blood plasma of blood samples obtained from these individuals prior to the intake of the disaccharide and after the intake thereof at approximately 1 hour intervals for 6 hours: in the hypolactasic individual a basal blood sample and another blood sample 2 hours after the intake of the 4-galactosyl-xylose disaccharide were taken. […] In view of the amount of xylose detected in the individual with lactose intolerance 2 hours after the intake of 4-galactosyl-xylose, 0.48 μg/100 μl of plasma and the sensitivity of the titration (minimum detection limit of xylose with fluoroglucinol of […]), the minimum volume of serum or plasma to reliably make the measurement is estimated to be 50 μl, which is equivalent to 0.2 ml of blood (2 to 3 drops).
# [3] = Gastrointestinal tolerability of the oral intake of 4-galactosyl-xylose in adult human volunteers
# T1 sequence (P09848 869-1927): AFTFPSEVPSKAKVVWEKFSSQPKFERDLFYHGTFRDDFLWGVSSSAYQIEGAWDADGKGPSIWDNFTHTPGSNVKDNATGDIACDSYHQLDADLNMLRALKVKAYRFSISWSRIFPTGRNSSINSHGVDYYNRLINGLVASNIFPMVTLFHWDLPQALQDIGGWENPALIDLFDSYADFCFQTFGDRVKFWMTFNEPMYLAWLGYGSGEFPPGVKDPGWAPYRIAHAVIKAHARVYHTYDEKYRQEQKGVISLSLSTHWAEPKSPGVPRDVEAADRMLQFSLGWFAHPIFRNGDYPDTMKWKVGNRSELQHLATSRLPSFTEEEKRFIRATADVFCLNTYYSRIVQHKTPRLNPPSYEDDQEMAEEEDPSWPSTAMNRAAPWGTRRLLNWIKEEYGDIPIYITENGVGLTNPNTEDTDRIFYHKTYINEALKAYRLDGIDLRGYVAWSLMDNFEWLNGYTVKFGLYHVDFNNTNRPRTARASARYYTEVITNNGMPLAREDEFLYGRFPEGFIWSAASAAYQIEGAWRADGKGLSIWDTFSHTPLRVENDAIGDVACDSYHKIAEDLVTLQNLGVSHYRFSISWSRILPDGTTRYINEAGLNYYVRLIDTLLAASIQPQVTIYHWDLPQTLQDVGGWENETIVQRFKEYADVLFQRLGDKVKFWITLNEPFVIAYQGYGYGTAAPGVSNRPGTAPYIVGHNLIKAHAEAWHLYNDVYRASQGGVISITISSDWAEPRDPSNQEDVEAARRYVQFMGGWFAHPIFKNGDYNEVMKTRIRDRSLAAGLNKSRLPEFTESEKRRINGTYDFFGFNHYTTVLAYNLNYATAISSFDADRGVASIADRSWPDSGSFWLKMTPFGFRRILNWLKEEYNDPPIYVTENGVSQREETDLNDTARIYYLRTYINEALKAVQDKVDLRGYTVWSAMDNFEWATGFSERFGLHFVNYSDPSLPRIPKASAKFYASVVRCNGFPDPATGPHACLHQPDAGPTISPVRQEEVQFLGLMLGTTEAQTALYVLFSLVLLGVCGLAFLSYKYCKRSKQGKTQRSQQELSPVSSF
smiles,measurement,setting,value
OCC1O[C@@H](O[C@@H]2COC(O)C(O)[C@H]2O)C(O)[C@@H](O)[C@H]1O (some centres unmarked),"total xylose in urine 8 hours after intake, average value","intestinal lactase [1]; female volunteers with lactose tolerance, 0.25 g oral",23.5 ± 2.0 mg
same,reduction of xylose in urine versus average of tolerant females,"intestinal lactase [1]; individual 5, 0.25 g oral, 8 hours",83%
same,total xylose in urine 8 hours after intake,"intestinal lactase [1]; individual 5, person with lactose intolerance from birth, 0.25 g oral",4.08 mg
same,reduction of xylose in urine versus average of tolerant males,"intestinal lactase [1]; individual 12, 0.25 g oral, 8 hours",96%
same,total xylose in urine 8 hours after intake,"intestinal lactase [1]; individual 12, hypolactasic person with lactose intolerance, 0.25 g oral",1.33 mg
same,total xylose excreted in urine after 8 hours,"intestinal lactase [1]; individual 13, person with allergy to milk components, 0.25 g oral",the same total amount as the average of females with lactose tolerance
same,dose dependence of excretion of xylose in urine,"intestinal lactase [1]; individuals 1 and 2 with lactose tolerance, oral doses of 0.25 g, 0.5 g, 1 g and 3 g",increased with the amount
same,"total xylose in urine 8 hours after intake, average value","intestinal lactase [1]; male volunteers with lactose tolerance, 0.25 g oral",35.7 ± 2.0 mg
same,"reduction of xylose in plasma, individual 12 versus individual 1","intestinal lactase [2]; 3 g oral, 2 hours",72%
same,"reduction of xylose in plasma, individual 12 versus individual 2","intestinal lactase [2]; 3 g oral, 2 hours",75%
same,xylose in blood plasma 2 hours after intake,"intestinal lactase [2]; hypolactasic individual 12, 3 g oral",0.48 μg/100 μl of plasma
same,xylose in blood plasma in a similar period of time (2 hours),"intestinal lactase [2]; individual 1 with lactose tolerance, 3 g oral",1.72 μg/100 ml of plasma
same,xylose in blood plasma in a similar period of time (2 hours),"intestinal lactase [2]; individual 2 with lactose tolerance, 3 g oral",1.95 μg/100 ml of plasma
same,xylose in blood plasma after 6 hours,"intestinal lactase [2]; individuals 1 and 2 with lactose tolerance, 3 g oral",undetectable
same,gastrointestinal discomfort or disorders,"[3]; 8 adult volunteers with lactose tolerance, 0.25 g oral",did not cause any gastrointestinal discomfort or disorder
same,gastrointestinal discomfort or disorders,"[3]; individual 1 with lactose tolerance, 1 g oral",did not cause any gastrointestinal discomfort or disorders
same,gastrointestinal discomfort or disorders,"[3]; individual 12 with lactose intolerance and two individuals with lactose tolerance, 3 g oral",did not result in any gastrointestinal discomfort or disorder
same,gastrointestinal discomfort or disorders,"[3]; individual 13, allergy to milk components, 0.25 g oral",did not cause any gastrointestinal discomfort or disorder
same,gastrointestinal discomfort or disorders,"[3]; individuals 1 and 2 with lactose tolerance, 0.25 g, 0.5 g and 3 g oral",did not cause any gastrointestinal discomfort or any disorder
same,gastrointestinal discomfort or disorders,"[3]; individuals 12 and 5 with lactose intolerance, 0.25 g oral",did not cause any gastrointestinal discomfort or disorders
